Data on eight compounds can be found in patent US10106580B2, “Enopeptins, uses thereof, and methods of synthesis thereto” (Brown University, priority 2011, dated 2018).

Assay [1] deals with Methicillin-susceptible S. aureus (ATCC 35556). Briefly: Broth dilution MIC/MBC vs methicillin-susceptible S. aureus. In kind it is cell-based, Staphylococcus aureus. The following applies: for MIC / MBC: Staphylococcus aureus, ATCC 35556 / MSSA, MSSA (ATCC 35556); for MBC: 99.9% kill after 24 h. The text has this:
(§1) The naturally occurring enopeptins and the synthetic derivative ADEP 4 are reported to have strong antibacterial activity (see, e.g., Hinzen et al., Chem Med Chem 2006, 1, 689). Broth dilution assays were used to determine the MICs of the acyldepsipeptide derivatives 10a-h against both ATCC strains and clinical isolates of S. epidermis, S. aureus, and Enterococci obtained from patients of the Veterans Affairs Medical Center in Providence, R.I. Clinical isolates were included to gain a better indication of the potential of these new antibacterial agents (see, e.g., Clinical and Laboratory Standard Institute (CLSI) Methods for dilution antimicrobial susceptibility tests for bacteria that grow aerobically M07-A8; CLSI 8th ed., Wayne, Pa., 2009; Clinical Laboratory Standards Institute (CLSI) Performance standards for antimicrobial susceptibility testing M100-S19. CLSI 19th informational suppl., Wayne, Pa. 2009). In the interest of assessing the cell-killing ability of these compounds, the minimal bactericidal concentrations (MBC) of the compounds was also determined against the aformentioned strains. The MIC was defined as the lowest concentration of an antimicrobial agent visually inhibiting more than 99% of the colonies.
(§2) Minimum inhibitory concentrations (MIC) were determined in duplicate using methods outlined by The Clinical and Laboratory Standards Institute. Compounds were dissolved in DMSO and fresh cation-adjusted Mueller-Hinton broth (SMHB; Difco Laboratories, Sparks, Md., USA; 25 μg/mL calcium and 12.5 μg/mL magnesium) was used to dilute antimicrobial agents in a serial 2-fold schedule. Colony counts for the inoculum verification was determined using Tryptic Soy Agar plates (TSA, Difco, Becton Dickinson Co., Sparks, Md., USA). Following incubation, 100 μL of broth was subcultured onto TSA for MBC determination. MIC and MBC determination can be found in Table 2 and 3. Control isolates were obtained from the American Type Culture Collection (ATCC) and were as follows: Methicillin-resistant S. epidermidis (MRSE ATCC 35984); MSSA (ATCC 35556) and, VRE (ATCC 2030).
Background: Broth dilution looks for growth in wells or tubes with falling amounts of substance.

For assay [2], the system named is Methicillin-resistant S. aureus (clinical isolate from blood). Description: Broth dilution MIC/MBC vs methicillin-resistant S. aureus. The conditions noted are these: Staphylococcus aureus, MRSA (clinical isolate from blood); for MBC: 99.9% kill after 24 h. The format is cell-based.
Source text: as §1, §2

The subject of assay [3] is Enterococcus faecalis (clinical isolate from rectal swab). Description: Broth dilution MIC/MBC vs E. faecalis clinical isolate. In kind it is cell-based. The conditions noted are these: EF^2: E. faecalis (clinical isolate from rectal swab).
Source text: as §1, §2

The subject of the next assay is S. aureus strains. Description: Antibacterial activity vs S. aureus strains, stated in words. In kind it is cell-based, Staphylococcus aureus.
Source text: as §1, with “The MIC was defined as the lowest concentration of an antimicrobial agent visually inhibiting more than 99% of the colonies.” left out
(§3) Minimum inhibitory concentrations (MIC) were determined in duplicate using methods outlined by The Clinical and Laboratory Standards Institute. […] Colony counts for the inoculum verification was determined using Tryptic Soy Agar plates (TSA, Difco, Becton Dickinson Co., Sparks, Md., USA). […]

The test system of assay [4] is Staphylococcus epidermis (ATCC 25984). Description: Broth dilution MIC/MBC vs Staphylococcus epidermis. In kind it is cell-based. The following applies: ATCC25984.
Source text: as §1, with “The MIC was defined as the lowest concentration of an antimicrobial agent visually inhibiting more than 99% of the colonies.” left out
as §3

Assay [5] relates to Enterococcus faecalis (ATCC 29212). Briefly: Broth dilution MIC/MBC vs E. faecalis ATCC strain. In kind it is cell-based. The following applies: ATCC29212, EF^1: E. faecalis (ATCC 29212).
Source text: as §1, §2

The subject of assay [6] is Vancomycin-resistant Enterococcus faecium (clinical isolate obtained from tissue). Briefly: Broth dilution MIC/MBC vs vancomycin-resistant E. faecium. In kind it is cell-based. The conditions noted are these: VRE.
Source text: as §1, §2

Assay [7] has as its system Vancomycin-resistant Enterococcus faecalis (clinical isolate from rectal swab). Description: Broth dilution MIC/MBC vs vancomycin-resistant E. faecalis. In kind it is cell-based. The conditions noted are these: VRE.
Source text: as §1, §2

In assay [8] the test system is E. faecalis and vancomycin-resistant E. faecium. Description: Antibacterial activity vs panel of pathogenic Enterococci, stated in words. The format is cell-based. The following applies: against E. faecalis and vancomycin-resistant E. faecium.
Source text: as §1, with “The MIC was defined as the lowest concentration of an antimicrobial agent visually inhibiting more than 99% of the colonies.” left out
as §3

Values after ≈ are worked out from the molar mass of the structure shown. Numbered stars: 1 amine (or outer) side, 2 acyl side, 3 side chain; on linkers, the order of the positions; unused ones are H or OH. Bridge positions count the residues as written; N and C are the ends. Square brackets hold non-standard residues; d marks the D form. Peptide text beside a SMILES is read from it. * marks the point of attachment. Phe(3-F) = N[C@@H](Cc1cccc(F)c1)C(=O)O; X2 = CC1CCN([*:1])[C@@H](C(=O)[*:2])C1; X1 = CC1CCN([*:1])[C@H](C(=O)[*:2])C1; X3 = CCC(CC)(C(=O)[*:2])N(C)[*:1]; Heptenoyl(2E) = CCCC/C=C/C(=O)*; NMeAc6c = CNC1(C(=O)O)CCCCC1; NMeAc5c = CNC1(C(=O)O)CCCC1; NMeAc4c = CNC1(C(=O)O)CCC1 A value given as a limit tells only on which side of the number the result lay.

In assay [1], `CCCC/C=C/C(=O)N[C@@H](Cc1cccc(F)c1)C(=O)N[C@H]1COC(=O)[C@@H]2CCCN2C(=O)[C@H](C)NC(=O)[C@H]2CCCCN2C(=O)[C@@H]2CCCN2C1=O` [Compound 10b] gave an MIC greater than 312 µg/mL and an MBC greater than 312 µg/mL. In assay [2], this compound returned an MIC greater than 312 µg/mL and an MBC greater than 312 µg/mL.

In [1], `CCCC/C=C/C(=O)N[C@@H](Cc1cccc(F)c1)C(=O)N[C@H]1COC(=O)[C@@H]2CCCN2C(=O)[C@H](C)NC(=O)C2(CCC2)N(C)C(=O)[C@@H]2CCCN2C1=O` [Compound 10f] ({Heptenoyl(2E)}-[Phe(3-F)]SP[NMeAc4c]AP; ester 2-C) yielded an MIC of 312 µg/mL (≈ 422 µM) and an MBC greater than 312 µg/mL. In assay [2], this compound yielded an MIC greater than 312 µg/mL and an MBC greater than 312 µg/mL.

In assay [1], `CCCC/C=C/C(=O)N[C@@H](Cc1cccc(F)c1)C(=O)N[C@H]1COC(=O)[C@@H]2CCCN2C(=O)[C@H](C)NC(=O)C2(CCCCC2)N(C)C(=O)[C@@H]2CCCN2C1=O` [Compound 10h] ({Heptenoyl(2E)}-[Phe(3-F)]SP[NMeAc6c]AP; ester 2-C) registered an MIC of 39.1 µg/mL (≈ 51 µM) and an MBC greater than 312 µg/mL. In addition, in assay [2], the MIC is greater than 312 µg/mL and the MBC is greater than 312 µg/mL.

`CCCC/C=C/C(=O)N[C@@H](Cc1cccc(F)c1)C(=O)N[C@H]1COC(=O)[C@@H]2CCCN2C(=O)[C@H](C)NC(=O)C2(CCCC2)N(C)C(=O)[C@@H]2CCCN2C1=O` [Compound 10g] ({Heptenoyl(2E)}-[Phe(3-F)]SP[NMeAc5c]AP; ester 2-C): in assay [1], the lowest concentration to inhibit growth (MIC) was 39.1 µg/mL (≈ 51.9 µM) and the MBC is greater than 312 µg/mL. In assay [2], this compound displayed an MIC greater than 312 µg/mL and an MBC greater than 312 µg/mL.

As to `CCCC/C=C/C(=O)N[C@@H](Cc1cccc(F)c1)C(=O)N[C@H]1COC(=O)[C@@H]2CCCN2C(=O)[C@H](C)NC(=O)[C@@H]2CCCCN2C(=O)[C@@H]2CCCN2C1=O` [Compound 10a], the MBC in assay [3] was found to be 0.04 µg/mL (≈ 0.0541 µM); in assay [1] it was 1.25 µg/mL (≈ 1.69 µM); in assay [2], 1.25 µg/mL (≈ 1.69 µM); in [4], 1.25 µg/mL (≈ 1.69 µM); in [5], 1.25 µg/mL (≈ 1.69 µM); in assay [6] it was 0.08 µg/mL (≈ 0.108 µM). Also, the MBC in [7] came out at 0.04 µg/mL (≈ 0.0541 µM). The MIC in [3] worked out at 0.04 µg/mL (≈ 0.0541 µM); in assay [1], 1.25 µg/mL (≈ 1.69 µM); in [2], 1.25 µg/mL (≈ 1.69 µM); in [4], 1.25 µg/mL (≈ 1.69 µM); in assay [5], 0.16 µg/mL (≈ 0.217 µM); in assay [6], 0.08 µg/mL (≈ 0.108 µM). Moreover, the MIC in [7] worked out at 0.04 µg/mL (≈ 0.0541 µM). For the same compound, the antibacterial activity result in the assay with S. aureus strains is reported as “exhibited the expected antibacterial activity”.

Consider `CCCC/C=C/C(=O)N[C@@H](Cc1cccc(F)c1)C(=O)N[C@H]1COC(=O)[C@@H]2CCCN2C(=O)[C@H](C)NC(=O)[C@@H]2CC(C)CCN2C(=O)[C@@H]2CCCN2C1=O` (some centres unmarked) [Compound 10c] ({Heptenoyl(2E)}-[Phe(3-F)]SP[X1]AP; ester 2-C), for which the MBC in [3] was 0.04 µg/mL (≈ 0.0531 µM); in [1], 0.6 µg/mL (≈ 0.797 µM); in [2] it was 2.4 µg/mL (≈ 3.19 µM); in [5] it was 0.08 µg/mL (≈ 0.106 µM); in assay [6], 0.08 µg/mL (≈ 0.106 µM); in assay [7] it was 0.04 µg/mL (≈ 0.0531 µM). Besides, the MIC in [3] amounted to 0.02 µg/mL (≈ 0.0266 µM); in [1], 0.6 µg/mL (≈ 0.797 µM); in [2], 0.6 µg/mL (≈ 0.797 µM); in assay [5] it was 0.04 µg/mL (≈ 0.0531 µM); in [6] it was 0.04 µg/mL (≈ 0.0531 µM); in assay [7] it was 0.04 µg/mL (≈ 0.0531 µM). For the same compound, the “antibacterial activity compared with compound 10a” value is given as “better activity than compound 10a” in assay [1] (against MSSA, in words) and “more potent activity” in assay [8].

In assay [1], `CCCC/C=C/C(=O)N[C@@H](Cc1cccc(F)c1)C(=O)N[C@H]1COC(=O)[C@@H]2CCCN2C(=O)[C@H](C)NC(=O)C(CC)(CC)N(C)C(=O)[C@@H]2CCCN2C1=O` [Compound 10e] ({Heptenoyl(2E)}-[Phe(3-F)]SP[X3]AP; ester 2-C) came in with an MIC of 78.1 µg/mL (≈ 103 µM) and an MBC greater than 312 µg/mL. In [2], this compound gave an MIC greater than 312 µg/mL and an MBC greater than 312 µg/mL.

`CCCC/C=C/C(=O)N[C@@H](Cc1cccc(F)c1)C(=O)N[C@H]1COC(=O)[C@@H]2CCCN2C(=O)[C@H](C)NC(=O)[C@H]2CC(C)CCN2C(=O)[C@@H]2CCCN2C1=O` (some centres unmarked) [Compound 10d] ({Heptenoyl(2E)}-[Phe(3-F)]SP[X2]AP; ester 2-C): the MIC in assay [1] and in assay [2] was greater than 156 µg/mL throughout. In addition, the MBC was greater than 156 µg/mL in assay [1] and 0.156 µg/mL (≈ 0.207 µM) in [2].

As usually defined, the MIC is the smallest concentration in the dilution series that meets the test's criterion for growth inhibition. The low end stands for greater potency, the high end for weaker potency. By MBC is commonly meant the lowest tested concentration that kills the bacteria rather than only halting them. Read a high MBC as weaker bactericidal potency.
